Legend:
Experiment in all cases: KINOMEscan competition binding
Conditions in all cases: compound 10.0 µM
AAK1 (human) = AAK1 (human) (UniProt Q2M2I8)
BTK (human) = BTK (human) (UniProt Q06187)
CASK (human) = CASK (human) (UniProt O14936)
CDK18 (human) = CDK18 (human) (UniProt Q07002)
CSNK1G1 (human) = CSNK1G1 (human) (UniProt Q9HCP0)
DSTYK (human) = DSTYK (human) (UniProt Q6XUX3)
DYRK1A (human) = DYRK1A (human) (UniProt Q13627)
EIF2AK2 (human) = EIF2AK2 (human) (UniProt P19525)
EPHB3 (human) = EPHB3 (human) (UniProt P54753)
FLT3 (human) = FLT3 (human) (UniProt P36888)
FYN (human) = FYN (human) (UniProt P06241)
GSK3B (human) = GSK3B (human) (UniProt P49841)
INSRR (human) = INSRR (human) (UniProt P14616)
[1] = biological target: JAK1 JH1 catalytic (human) (UniProt P23458)
[2] = tested on: KIT (human), P10721 [L576P]
MAP3K11 (human) = MAP3K11 (human) (UniProt Q16584)
MAP3K7 (human) = MAP3K7 (human) (UniProt O43318)
MAPK3 (human) = MAPK3 (human) (UniProt P27361)
MAPK9 (human) = MAPK9 (human) (UniProt P45984)
MET (human) = MET (human) (UniProt P08581)
Sequence of MET (human) (P08581 whole entry, looked up): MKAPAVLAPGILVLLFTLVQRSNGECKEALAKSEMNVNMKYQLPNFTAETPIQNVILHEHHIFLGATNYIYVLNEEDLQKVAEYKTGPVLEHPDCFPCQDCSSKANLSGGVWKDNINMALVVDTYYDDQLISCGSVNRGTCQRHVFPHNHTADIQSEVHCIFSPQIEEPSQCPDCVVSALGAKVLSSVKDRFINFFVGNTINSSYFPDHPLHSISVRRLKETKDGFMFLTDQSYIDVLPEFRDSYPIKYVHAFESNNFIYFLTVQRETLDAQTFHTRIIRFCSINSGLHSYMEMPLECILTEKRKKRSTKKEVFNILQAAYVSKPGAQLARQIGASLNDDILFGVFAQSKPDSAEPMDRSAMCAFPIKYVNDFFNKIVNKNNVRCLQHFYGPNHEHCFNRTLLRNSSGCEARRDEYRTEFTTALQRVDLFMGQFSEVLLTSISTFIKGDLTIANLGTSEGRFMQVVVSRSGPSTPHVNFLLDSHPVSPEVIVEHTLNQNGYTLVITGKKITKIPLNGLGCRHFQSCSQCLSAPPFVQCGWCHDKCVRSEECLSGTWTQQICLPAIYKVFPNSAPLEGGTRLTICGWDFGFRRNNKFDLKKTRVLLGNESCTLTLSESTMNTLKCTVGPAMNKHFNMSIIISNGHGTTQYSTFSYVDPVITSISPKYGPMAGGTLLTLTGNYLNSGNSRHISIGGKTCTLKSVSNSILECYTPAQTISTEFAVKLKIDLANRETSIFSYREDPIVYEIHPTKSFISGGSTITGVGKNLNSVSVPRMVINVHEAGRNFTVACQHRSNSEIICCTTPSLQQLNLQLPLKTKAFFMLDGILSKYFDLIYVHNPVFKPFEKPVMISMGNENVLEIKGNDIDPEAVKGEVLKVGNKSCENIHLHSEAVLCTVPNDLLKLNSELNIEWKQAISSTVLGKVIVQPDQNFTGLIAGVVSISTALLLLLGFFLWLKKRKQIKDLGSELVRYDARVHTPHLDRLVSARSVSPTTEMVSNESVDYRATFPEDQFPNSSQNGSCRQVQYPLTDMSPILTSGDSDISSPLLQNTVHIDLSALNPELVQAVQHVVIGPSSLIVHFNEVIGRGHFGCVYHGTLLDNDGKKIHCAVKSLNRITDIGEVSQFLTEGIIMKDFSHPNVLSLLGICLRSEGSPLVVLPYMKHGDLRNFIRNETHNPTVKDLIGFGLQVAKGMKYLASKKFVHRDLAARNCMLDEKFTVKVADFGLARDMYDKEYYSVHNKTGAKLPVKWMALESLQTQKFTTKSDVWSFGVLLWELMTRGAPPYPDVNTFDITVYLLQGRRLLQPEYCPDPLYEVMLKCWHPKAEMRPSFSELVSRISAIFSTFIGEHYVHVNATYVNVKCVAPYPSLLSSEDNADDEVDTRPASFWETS

MST1R (human) = MST1R (human) (UniProt Q04912)
MYLK2 (human) = MYLK2 (human) (UniProt Q9H1R3)
NEK3 (human) = NEK3 (human) (UniProt P51956)
Sequence of NEK3 (human) (P51956 whole entry, looked up): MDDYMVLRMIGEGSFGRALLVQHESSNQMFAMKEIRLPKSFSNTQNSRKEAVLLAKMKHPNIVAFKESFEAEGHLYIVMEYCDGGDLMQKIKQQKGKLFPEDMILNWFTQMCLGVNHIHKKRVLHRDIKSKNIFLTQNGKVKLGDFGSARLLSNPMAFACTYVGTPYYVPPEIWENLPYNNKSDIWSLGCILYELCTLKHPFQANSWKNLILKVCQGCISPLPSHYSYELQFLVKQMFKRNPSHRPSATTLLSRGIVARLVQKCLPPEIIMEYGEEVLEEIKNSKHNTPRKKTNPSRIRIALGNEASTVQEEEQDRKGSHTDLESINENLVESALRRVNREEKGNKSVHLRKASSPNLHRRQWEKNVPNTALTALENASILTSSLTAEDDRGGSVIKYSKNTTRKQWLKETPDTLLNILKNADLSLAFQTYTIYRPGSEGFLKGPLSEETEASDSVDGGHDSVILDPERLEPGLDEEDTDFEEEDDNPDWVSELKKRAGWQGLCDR

NEK6 (human) = NEK6 (human) (UniProt Q9HC98)
PAK2 (human) = PAK2 (human) (UniProt Q13177)
PAK7 (human) = PAK7 (human) (UniProt Q9P286)
PIM1 (human) = PIM1 (human) (UniProt P11309)
PIM2 (human) = PIM2 (human) (UniProt Q9P1W9)
PKN3 (M.tuberculosis) = PKN3 (M.tuberculosis) (UniProt Q6P5Z2)
PLK4 (human) = PLK4 (human) (UniProt O00444)
RIPK1 (human) = RIPK1 (human) (UniProt Q13546)
RIPK2 (human) = RIPK2 (human) (UniProt O43353)
ROCK1 (human) = ROCK1 (human) (UniProt Q13464)
ROCK2 (human) = ROCK2 (human) (UniProt O75116)
STK32B (human) = STK32B (human) (UniProt Q9NY57)
STK35 (human) = STK35 (human) (UniProt Q8TDR2)
TAOK1 (human) = TAOK1 (human) (UniProt Q7L7X3)
TRPM6 (human) = TRPM6 (human) (UniProt Q9BX84)
Sequence of TRPM6 (human) (Q9BX84 whole entry, looked up): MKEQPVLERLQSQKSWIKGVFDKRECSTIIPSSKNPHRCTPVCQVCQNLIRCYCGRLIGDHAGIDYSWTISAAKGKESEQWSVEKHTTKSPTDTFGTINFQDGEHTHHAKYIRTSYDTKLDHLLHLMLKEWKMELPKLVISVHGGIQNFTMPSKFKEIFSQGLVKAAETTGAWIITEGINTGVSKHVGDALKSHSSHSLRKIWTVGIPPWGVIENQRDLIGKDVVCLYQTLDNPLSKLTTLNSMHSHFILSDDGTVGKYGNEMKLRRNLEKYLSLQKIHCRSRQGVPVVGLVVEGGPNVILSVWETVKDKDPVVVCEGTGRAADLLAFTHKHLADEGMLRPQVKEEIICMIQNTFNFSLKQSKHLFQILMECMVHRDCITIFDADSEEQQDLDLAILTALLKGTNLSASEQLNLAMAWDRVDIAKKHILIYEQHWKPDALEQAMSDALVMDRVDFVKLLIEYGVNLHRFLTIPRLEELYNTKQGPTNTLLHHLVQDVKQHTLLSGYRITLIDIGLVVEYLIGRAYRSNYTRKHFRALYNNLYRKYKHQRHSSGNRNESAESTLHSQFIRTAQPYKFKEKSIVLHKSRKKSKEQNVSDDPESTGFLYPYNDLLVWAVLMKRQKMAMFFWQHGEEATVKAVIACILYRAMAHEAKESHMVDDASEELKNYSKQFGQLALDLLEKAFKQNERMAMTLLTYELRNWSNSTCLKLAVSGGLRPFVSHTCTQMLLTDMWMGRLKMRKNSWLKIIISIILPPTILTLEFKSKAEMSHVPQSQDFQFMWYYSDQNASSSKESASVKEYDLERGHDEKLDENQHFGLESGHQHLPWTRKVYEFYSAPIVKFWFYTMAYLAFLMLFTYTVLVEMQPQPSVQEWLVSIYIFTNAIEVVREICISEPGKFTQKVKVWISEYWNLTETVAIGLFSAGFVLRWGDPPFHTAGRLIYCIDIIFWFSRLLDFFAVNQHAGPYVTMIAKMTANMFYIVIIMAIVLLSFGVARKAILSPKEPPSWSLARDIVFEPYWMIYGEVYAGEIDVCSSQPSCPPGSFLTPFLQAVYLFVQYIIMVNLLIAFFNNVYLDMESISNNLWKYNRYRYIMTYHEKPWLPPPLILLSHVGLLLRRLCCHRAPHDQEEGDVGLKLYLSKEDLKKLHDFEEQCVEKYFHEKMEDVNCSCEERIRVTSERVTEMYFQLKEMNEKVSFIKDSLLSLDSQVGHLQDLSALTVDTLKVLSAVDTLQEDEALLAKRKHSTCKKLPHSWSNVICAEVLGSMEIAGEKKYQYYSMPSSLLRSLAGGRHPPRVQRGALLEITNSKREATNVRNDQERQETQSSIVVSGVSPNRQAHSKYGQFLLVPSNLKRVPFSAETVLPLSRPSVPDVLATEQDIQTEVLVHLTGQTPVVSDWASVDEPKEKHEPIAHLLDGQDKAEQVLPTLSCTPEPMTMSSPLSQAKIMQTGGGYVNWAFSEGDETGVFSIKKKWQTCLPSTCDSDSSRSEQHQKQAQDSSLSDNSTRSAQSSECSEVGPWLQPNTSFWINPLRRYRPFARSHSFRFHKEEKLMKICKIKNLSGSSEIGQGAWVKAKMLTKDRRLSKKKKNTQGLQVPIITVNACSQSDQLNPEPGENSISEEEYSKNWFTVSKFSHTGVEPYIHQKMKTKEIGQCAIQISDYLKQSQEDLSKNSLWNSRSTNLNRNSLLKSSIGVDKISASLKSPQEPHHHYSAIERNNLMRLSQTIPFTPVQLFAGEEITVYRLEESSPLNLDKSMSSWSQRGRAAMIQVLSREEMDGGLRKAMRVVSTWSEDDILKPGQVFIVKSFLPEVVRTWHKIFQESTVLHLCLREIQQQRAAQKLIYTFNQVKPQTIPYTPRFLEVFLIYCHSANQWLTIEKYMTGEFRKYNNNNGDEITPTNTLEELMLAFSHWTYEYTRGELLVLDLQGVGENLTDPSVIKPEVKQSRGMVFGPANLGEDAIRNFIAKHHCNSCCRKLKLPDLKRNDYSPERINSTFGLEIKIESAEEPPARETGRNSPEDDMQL

TSSK1B (human) = TSSK1B (human) (UniProt Q9BXA7)
WEE1 (human) = WEE1 (human) (UniProt P30291)

Sequence of DSTYK (human) (Q6XUX3 whole entry, looked up): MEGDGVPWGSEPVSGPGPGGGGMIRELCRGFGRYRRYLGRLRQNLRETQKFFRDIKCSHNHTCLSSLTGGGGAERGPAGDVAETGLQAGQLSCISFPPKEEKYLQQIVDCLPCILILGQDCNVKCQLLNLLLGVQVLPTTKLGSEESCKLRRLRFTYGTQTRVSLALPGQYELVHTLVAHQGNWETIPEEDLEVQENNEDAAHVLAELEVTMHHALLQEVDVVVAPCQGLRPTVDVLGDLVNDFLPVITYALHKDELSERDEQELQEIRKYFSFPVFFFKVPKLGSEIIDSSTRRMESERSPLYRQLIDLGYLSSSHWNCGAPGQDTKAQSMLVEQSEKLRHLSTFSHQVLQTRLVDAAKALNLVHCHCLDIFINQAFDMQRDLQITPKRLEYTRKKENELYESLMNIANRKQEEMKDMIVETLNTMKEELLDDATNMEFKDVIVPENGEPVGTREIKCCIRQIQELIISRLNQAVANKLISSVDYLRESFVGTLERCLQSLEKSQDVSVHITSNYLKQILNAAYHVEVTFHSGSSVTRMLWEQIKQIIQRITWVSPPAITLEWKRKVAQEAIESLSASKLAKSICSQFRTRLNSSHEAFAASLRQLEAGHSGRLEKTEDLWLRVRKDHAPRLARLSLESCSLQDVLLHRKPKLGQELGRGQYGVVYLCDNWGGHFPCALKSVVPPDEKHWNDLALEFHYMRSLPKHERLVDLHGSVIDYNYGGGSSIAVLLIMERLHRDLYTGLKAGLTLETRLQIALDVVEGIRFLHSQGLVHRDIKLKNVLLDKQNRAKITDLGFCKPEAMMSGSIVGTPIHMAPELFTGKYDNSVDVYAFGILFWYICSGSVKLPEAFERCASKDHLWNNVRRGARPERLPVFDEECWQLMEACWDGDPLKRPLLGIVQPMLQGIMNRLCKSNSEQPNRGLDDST

| Compound | kinase still bound, per cent of control (AAK1 (human)) [%] | kinase still bound, per cent of control (BTK (human)) [%] | kinase still bound, per cent of control (CASK (human)) [%] | kinase still bound, per cent of control (CDK18 (human)) [%] | kinase still bound, per cent of control (CSNK1G1 (human)) [%] | kinase still bound, per cent of control (DSTYK (human)) [%] | kinase still bound, per cent of control (DYRK1A (human)) [%] | kinase still bound, per cent of control (EIF2AK2 (human)) [%] | kinase still bound, per cent of control (EPHB3 (human)) [%] | kinase still bound, per cent of control (FLT3 (human)) [%] | kinase still bound, per cent of control (FYN (human)) [%] | kinase still bound, per cent of control (GSK3B (human)) [%] | kinase still bound, per cent of control (INSRR (human)) [%] | kinase still bound, per cent of control [1] [%] | kinase still bound, per cent of control [2] [%] | kinase still bound, per cent of control (MAP3K11 (human)) [%] | kinase still bound, per cent of control (MAP3K7 (human)) [%] | kinase still bound, per cent of control (MAPK3 (human)) [%] | kinase still bound, per cent of control (MAPK9 (human)) [%] | kinase still bound, per cent of control (MET (human)) [%] | also measured |
| --- | --- | --- | --- | --- | --- | --- | --- | --- | --- | --- | --- | --- | --- | --- | --- | --- | --- | --- | --- | --- | --- |
| O=c1cc(N2CCOCC2)oc2c(-c3cccc4c3sc3ccccc34)cccc12 | 87 | 100 | 100 | 100 | 92 | 99 | 61 | 72 | 100 | 100 | 100 | 44 | 100 | 100 | 66 | 97 | 100 | 100 | 39 | 63 | kinase still bound, per cent of control (MST1R (human)): 97%; kinase still bound, per cent of control (MYLK2 (human)): 100%; kinase still bound, per cent of control (NEK3 (human)): 100%; kinase still bound, per cent of control (NEK6 (human)): 100%; kinase still bound, per cent of control (PAK2 (human)): 61%; kinase still bound, per cent of control (PAK7 (human)): 96%; kinase still bound, per cent of control (PIM1 (human)): 62%; kinase still bound, per cent of control (PIM2 (human)): 84%; kinase still bound, per cent of control (PKN3 (M.tuberculosis)): 6.6%; kinase still bound, per cent of control (PLK4 (human)): 90%; kinase still bound, per cent of control (RIPK1 (human)): 100%; kinase still bound, per cent of control (RIPK2 (human)): 91%; kinase still bound, per cent of control (ROCK1 (human)): 100%; kinase still bound, per cent of control (ROCK2 (human)): 100%; kinase still bound, per cent of control (STK32B (human)): 95%; kinase still bound, per cent of control (STK35 (human)): 80%; kinase still bound, per cent of control (TAOK1 (human)): 100%; kinase still bound, per cent of control (TRPM6 (human)): 100%; kinase still bound, per cent of control (TSSK1B (human)): 83%; kinase still bound, per cent of control (WEE1 (human)): 100% |
| COc1cc(C(=O)N2CCC(N3CCN(C)CC3)CC2)ccc1Nc1ncc2c(n1)N(C)c1ccccc1C(=O)N2C | 84 | 100 | 85 | 100 | 100 | 16 | 99 | 84 | 100 | 100 | 100 | 88 | 97 | 100 | 100 | 100 | 98 | 100 | 94 | 100 | kinase still bound, per cent of control (MST1R (human)): 98%; kinase still bound, per cent of control (MYLK2 (human)): 98%; kinase still bound, per cent of control (NEK3 (human)): 100%; kinase still bound, per cent of control (NEK6 (human)): 76%; kinase still bound, per cent of control (PAK2 (human)): 65%; kinase still bound, per cent of control (PAK7 (human)): 96%; kinase still bound, per cent of control (PIM1 (human)): 100%; kinase still bound, per cent of control (PIM2 (human)): 100%; kinase still bound, per cent of control (PKN3 (M.tuberculosis)): 100%; kinase still bound, per cent of control (PLK4 (human)): 0%; kinase still bound, per cent of control (RIPK1 (human)): 99%; kinase still bound, per cent of control (RIPK2 (human)): 100%; kinase still bound, per cent of control (ROCK1 (human)): 100%; kinase still bound, per cent of control (ROCK2 (human)): 87%; kinase still bound, per cent of control (STK32B (human)): 100%; kinase still bound, per cent of control (STK35 (human)): 100%; kinase still bound, per cent of control (TAOK1 (human)): 28%; kinase still bound, per cent of control (TRPM6 (human)): 100%; kinase still bound, per cent of control (TSSK1B (human)): 60%; kinase still bound, per cent of control (WEE1 (human)): 100% |
| CN(C)C/C=C/C(=O)Nc1ccc(C(=O)Nc2cccc(Nc3nccc(-c4cccnc4)n3)c2)cc1 | 5.2 | 71 | 98 | 95 | 0.5 | 100 | 28 | 50 | 75 | 36 | 100 | 67 | 100 | 100 | 0.35 | 100 | 9.2 | 100 | 2.5 | 100 | kinase still bound, per cent of control (MST1R (human)): 100%; kinase still bound, per cent of control (MYLK2 (human)): 53%; kinase still bound, per cent of control (NEK3 (human)): 17%; kinase still bound, per cent of control (NEK6 (human)): 2.8%; kinase still bound, per cent of control (PAK2 (human)): 76%; kinase still bound, per cent of control (PAK7 (human)): 52%; kinase still bound, per cent of control (PIM1 (human)): 95%; kinase still bound, per cent of control (PIM2 (human)): 100%; kinase still bound, per cent of control (PKN3 (M.tuberculosis)): 84%; kinase still bound, per cent of control (PLK4 (human)): 29%; kinase still bound, per cent of control (RIPK1 (human)): 34%; kinase still bound, per cent of control (RIPK2 (human)): 84%; kinase still bound, per cent of control (ROCK1 (human)): 48%; kinase still bound, per cent of control (ROCK2 (human)): 41%; kinase still bound, per cent of control (STK32B (human)): 100%; kinase still bound, per cent of control (STK35 (human)): 80%; kinase still bound, per cent of control (TAOK1 (human)): 28%; kinase still bound, per cent of control (TRPM6 (human)): 100%; kinase still bound, per cent of control (TSSK1B (human)): 100%; kinase still bound, per cent of control (WEE1 (human)): 100% |

Source: the kinase profiling compilation of Christmann-Franck et al. (2016)
